Measurements published in publication PMC9658812, “New Pyrimidine-5-Carbonitriles as COX-2 Inhibitors: Design, Synthesis, Anticancer Screening, Molecular Docking, and In Silico ADME Profile Studies” (Molecules, 2022).
Where “and” joins values, the source holds several entries; their conditions need not be identical. Equal entries are not always repeated. Where two headings read alike, the source gives them in different places.

Columns and labels:
[1] = tested on: A498 cells (renal carcinoma); test: MTT cytotoxicity assay, A498; settings: for IC50: Homo sapiens, A498, 24 h, read-out: Cytotoxicity IC50 A498
Protocol: (§1) Breast carcinoma (MCF-7), renal cell carcinoma (A498), lung cancer (A549), and liver carcinoma (HepG2) cell lines, in addition to non-tumorigenic WI-38 cell lines, were collected from the American Type Culture Collection. The cells were grown in DMEM (Invitrogen/Life Technologies) containing 1% penicillin-streptomycin, 10 µg/mL of insulin (Sigma), and 10% FBS (Hyclone).
(§2) To check the possible cellular toxicity, synthesized compounds were subjected to the MTT [3-(4,5-dimethylthiazol-2-yl)-2,5-diphenyltetrazolium bromide] assay against the MCF7, A549, A498, and HepG2 cell lines. […] Later, 2.0–3.0 mL of Trypsin EDTA solution was added into the flask containing the cell layers for 5–15 min to disperse the cell layer, which was observed through an inverted microscope. By gently pipetting, aspirated cells were added into a 6.0–8.0 mL growth medium. […] An amount of 20 μL of a 5-mg/mL MTT solution was applied after a 24-h drug-treatment period, and it was incubated for 4 h. To dissolve the produced purple formazan, each well received 100 μL of dimethyl sulfoxide (DMSO).

MCF-7 cells [2] = test: Apoptosis determination by Annexin-V assay; format: cell-based; settings: MCF-7, IC50 concentration
Protocol: A biparametric cytofluorimetric analysis was performed using the Annexin-V assay to verify the ability of compound 5d at its IC50 concentration to trigger apoptosis. When compared to the control, compound 5d increased the proportion of early and late apoptotic cells in MCF-7 cells by nearly 13- and 60-fold, respectively, when compared to control cells, which had 0.53% and 0.25% early and late apoptotic cells, respectively.
The MCF-7 cell culture was treated with an IC50 of compound 5d for 48 h. The cancer cells were then suspended in PBS, centrifuged, and preserved in 99% ethanol (ice-cold). Cells suspended in ethanol were centrifuged for 5 min before being suspended in PBS and re-centrifuged once again. The supernatant was decanted, and the cells were stained at 37 °C with annexin V fluorescein isothiocyanate and PI using the apoptosis detection kit (BD Biosciences, San Jose, CA, USA) following the manufacturer’s instructions. A flow cytometer was used to examine the binding of annexin V-FITC and PI. The FACS Calibur was used to assess the cells, and Phoenix Flow Systems and Verity Software House were employed to calculate their distributions.

[3] = tested on: MCF7 cells (breast carcinoma); test: MTT cytotoxicity assay, MCF7; settings: for IC50: Homo sapiens, MCF7, 24 h, read-out: Cytotoxicity IC50 MCF7
Protocol: as §1, §2

MCF-7 cells [4] = test: Cell cycle analysis by flow cytometry (PI); format: cell-based
Protocol: These findings imply that compound 5d’s cytotoxicity was proven by the arrest of cell growth at the G2/M phase.
Compound 5d was applied to MCF-7 cell culture for 48 h at its IC50 concentration. Briefly, cells were rinsed twice with phosphate buffer saline (PBS) (ice-cold) and then centrifuged and/or fixed in 70% (v/v) ethanol (ice-cold). The solution was rinsed with PBS, suspended with RNase (0.1 mg/mL), stained with propidium iodide (PI) ([…]), and analyzed via flow cytometry utilizing the FACS Calibur (Becton Dickinson, Franklin Lakes, NJ, USA). Through Cell-Quest software (Becton Dickinson), cell cycle distributions were calculated.

[5] = tested on: A549 cells (non-small-cell lung cancer); test: MTT cytotoxicity assay, A549; settings: for IC50: Homo sapiens, A549, 24 h, read-out: Cytotoxicity IC50 A549
Protocol: as §1, §2

[6] = tested on: HepG2 cells (liver carcinoma); test: MTT cytotoxicity assay, HepG2; settings: for IC50: Homo sapiens, HepG2, 24 h, read-out: Cytotoxicity IC50 HepG2
Protocol: as §1, §2

[7] = tested on: WI-38 cells (normal cell derived from lung tissue); test: Cytotoxicity on non-tumorigenic WI-38 cell line; settings: Homo sapiens, WI-38, read-out: WI-38 IC50
Protocol: as §1, §2

human COX-2 = target: T1, human COX-2 (Homo sapiens, UniProt P35354); test: COX-2 inhibition assay (fluorometric inhibitor screening kit); format: biochemical; settings: for inhibition at 10 µM / inhibition at 1 µM / inhibition at 0.1 µM / inhibition at 0.01 µM / inhibition at 0.001 µM: read-out: COX-2 Inhibition (%)
T1 construct: purchased Biovision, Zurich, Switzerland
T1 sequence (P35354 18-604): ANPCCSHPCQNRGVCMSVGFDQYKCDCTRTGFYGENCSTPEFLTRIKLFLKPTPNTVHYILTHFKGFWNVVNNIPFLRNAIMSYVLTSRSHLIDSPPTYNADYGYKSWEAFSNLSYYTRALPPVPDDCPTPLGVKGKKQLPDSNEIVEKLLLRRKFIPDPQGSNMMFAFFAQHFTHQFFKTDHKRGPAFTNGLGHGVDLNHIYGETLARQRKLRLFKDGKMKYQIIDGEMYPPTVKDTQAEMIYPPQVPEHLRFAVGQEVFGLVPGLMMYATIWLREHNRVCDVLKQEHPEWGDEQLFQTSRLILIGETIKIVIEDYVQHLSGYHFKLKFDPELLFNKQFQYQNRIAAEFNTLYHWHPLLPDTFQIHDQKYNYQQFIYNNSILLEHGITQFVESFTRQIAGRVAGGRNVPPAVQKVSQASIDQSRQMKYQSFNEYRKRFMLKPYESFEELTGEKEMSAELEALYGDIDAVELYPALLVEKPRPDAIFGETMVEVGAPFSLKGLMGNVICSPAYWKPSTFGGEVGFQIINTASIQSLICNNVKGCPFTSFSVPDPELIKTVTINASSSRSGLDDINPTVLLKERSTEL
Text: Fluorometric inhibitor screening kits (Biovision, Zurich, Switzerland) were utilized for the COX-2 enzyme inhibition test, as described before.

MCF-7 = settings: breast cancer cell line; cited from earlier work
[8] = tested on: MDA-MB-231 breast cancer cell line; set-up: method as in PMID 28486908; settings: cited from earlier work
[9] = tested on: gastric MGC-803 cancer cells; set-up: method as in PMID 25610955, PMID 25180925; settings: cited from earlier work
HeLa cell lines = tested on: HeLa cell lines; set-up: method as in doi:10.1007/s00044-012-0051-9; settings: anticancer activity in vitro; cited from earlier work
COX-2 = settings: cited from earlier work
[10] = MCF-7, compound at its IC50 concentration, 48 h

SMILES: COc1ccc(-c2nc(NS(=O)(=O)c3ccc(C(F)(F)F)cc3)nc(OC)c2C#N)cc1 [Compound 5d, N-(5-Cyano-4-methoxy-6-(4-methoxyphenyl)pyrimidin-2-yl)-4-(trifluoromethyl)benzene sulfonamide]
- IC50 [1]: 2 ± 0.08 nM
- fold more cytotoxic than doxorubicin, A498 ([1]; versus doxorubicin): ~3.5 fold
- increase of proportion of early apoptotic cells versus control (MCF-7 cells [2]): ~13 fold
- increase of proportion of late apoptotic cells versus control (MCF-7 cells [2]): ~60 fold
- proportion of necrosis versus control (MCF-7 cells [2]): three-fold
- Apoptosis Early (MCF-7 cells [2]; 48 h): 6.78 ± 0.25%
- Apoptosis Late (MCF-7 cells [2]; 48 h): 14.96 ± 1.10%
- Necrosis (MCF-7 cells [2]; 48 h): 2.83 ± 0.47%
- IC50 [3]: 1 ± 0.03 nM
- fold more cytotoxic than doxorubicin, MCF7 ([3]; versus doxorubicin): about 9 fold
- accumulation of cell population in G2/M phase compared to control (MCF-7 cells [4]; MCF-7, IC50 concentration): 5 times
- accumulation of cell population in sub-G1 phase compared to control (MCF-7 cells [4]; MCF-7, IC50 concentration): 16 times
- %G0-G1 (MCF-7 cells [4]; [10]): 24.39 ± 3.01 %
- %G2/M (MCF-7 cells [4]; [10]): 58.37 ± 0.52 %
- %Pre-G1 (MCF-7 cells [4]; [10]): 26.16 ± 1.53%
- %S (MCF-7 cells [4]; [10]): 16.23% and 16.23 ± 1.23 %
- IC50 [5]: 1 ± 0.05 nM
- fold more cytotoxic than doxorubicin, A549 ([5]; versus doxorubicin): ~13 fold
- IC50 [6]: 9 ± 0.34 nM
- fold more cytotoxic than doxorubicin, HepG2 ([6]; versus doxorubicin): ~2.8 fold
- IC50 [7]: 91290 ± 470 nM
- inhibition at 10 µM (human COX-2; 10^−5 M, mean of three experiments ± SD): 41.8 ± 0.91%
- inhibition at 1 µM (human COX-2; 10^−6 M, mean of three experiments ± SD): 35.9 ± 0.72%
- inhibition at 0.1 µM (human COX-2; 10^−7 M, mean of three experiments ± SD): 23.1 ± 0.25%
- inhibition at 0.01 µM (human COX-2; 10^−8 M, mean of three experiments ± SD): 76.1 ± 1.05%
- inhibition at 0.001 µM (human COX-2; 10^−9 M, mean of three experiments ± SD): 60.7 ± 1.09%
- IC50 (human COX-2; human COX-2 assay kit, three experiments): 160 ± 10 nM
- melting point: 291 to 293 °C

SMILES: COc1ccc(-c2nc(N3N=C(c4ccc(F)cc4)CCC3=O)n(C)c(=O)c2C#N)cc1 [Compound V]
- IC50 (MCF-7): 2560 nM
- IC50 [8]: 3430 nM

SMILES: COc1cccc2c1C(=O)c1c(O)c3c(c(O)c1C2=O)C[C@@](O)(C(=O)CO)C[C@@H]3O[C@H]1C[C@H](N)[C@H](O)[C@H](C)O1 [Doxorubicin, doxorubicin, reference compound]
- IC50 [1]: 7 ± 0.23 nM
- IC50 [3]: 9 ± 0.26 nM
- IC50 [5]: 13 ± 0.42 nM
- IC50 [6]: 25 ± 0.55 nM
- IC50 [7]: 8830 ± 90 nM

SMILES: C#CCSc1nc(NC(N)=S)c(C#N)c(-c2cc(OC)c(OC)c(OC)c2)n1 [III]
- IC50 [9]: 4010 nM

SMILES: COc1ccc(-c2nc(Nc3ccc(S(N)(=O)=O)cc3)n3c(C)nnc3c2C#N)cc1OC [II]
- IC50 (HeLa cell lines): 39 nM

SMILES: CS(=O)(=O)Nc1ccc([N+](=O)[O-])cc1Oc1ccccc1 [Nimesulide, reference compound]
- inhibition at 0.001 µM (human COX-2): 17.1 ± 0.38%
- inhibition at 0.01 µM (human COX-2): 24 ± 0.42%
- inhibition at 0.1 µM (human COX-2): 29.4 ± 0.55%
- inhibition at 1 µM (human COX-2): 36.4 ± 0.84%
- inhibition at 10 µM (human COX-2): 69.5 ± 1.02%

SMILES: NS(=O)(=O)c1ccc(-c2nc(Cl)cc(NCc3cccs3)n2)cc1 [VII]
- IC50 (COX-2; COX-2 inhibitor potency): 12.7 nM

SMILES: CS(=O)(=O)c1ccc(C2=C(c3ccccc3)C(=O)OC2)cc1 [rofecoxib]
- IC50 (COX-2): 292 nM
